Experimental data published in patent publication US10987360B2, “Hepatitis B core protein modulators” (Assembly Biosciences, Inc., priority 2016, dated 2021).
Like-named read-outs stand apart in the source and are kept apart here.

Tests used:
[1] = test system: AD38 cells; experiment: Viability of AD38 cells, Promega CellTiter-Glo; assay type: cell-based; settings: 6 days incubation, controls being 100%; for AD38 Viability Normalized Result (CPAM/DMSO %) at 10 μM: Table 6, compounds of Group 4
Protocol: (§1) Assay Measuring Activity of Compounds on Viral Production in and on Viability of AD38 Cells
(§2) AD38 cells grown in a 175 cm flask with “Growth Medium” (DMEM/F12 (1:1) (cat #SH30023.01, Hyclone, 1×Pen/step (cat #: 30-002-CL, Mediatech, Inc), 10% FBS (cat #: 101, Tissue Culture Biologics), 250 μg/mL G418 (cat #: 30-234-CR, Mediatech, Inc), 1 μg/mL Tetracycline (cat #: T3325, Teknova)) were detached with 0.25% trypsin. Tetracycline-free “treatment medium” (15 mL DMEM/F12 (1:1) (cat #SH30023.01, Hyclone, 1×Pen/step (cat #: 30-002-CL, Mediatech, Inc), with 2% FBS, Tet-system approved (cat #: 631106, Clontech) were then added to mix and spun at 1300 rpm for 5 min. Pelleted cells were then re-suspended/washed with 50 mL of 1×PBS 2 times and 10 mL Treatment Medium one time. AD38 cells were then re-suspended with 10 mL of Treatment Medium and counted. Wells of a collagen coated 96-well NUNC microtiter plate were seeded at 50,000/well in 180 μL of Treatment Medium, and 20 μL of in treatment media with either 10% DMSO (Control) or a 10× solution of compound in 10% DMSO was added. Plates were incubated for 6 days at 37° C.
At the end of compound treatment period cell viability was assessed using a Promega CellTiter-Glo protocol. All supernatant was removed the previously treated 96-well microtiter plate, and 50 μL Tetracycline-free treatment medium (DMEM/F12 (1:1), 1×Pen/step (cat #: 30-002-CL, Mediatech, Inc), with 2% FBS, Tet-system approved (cat #: 631106, Clontech), and 1% DMSO was added back to each well. Another 50 μL of CellTiter-Glo reagent solution (Promega, G7573) was then added at room temperature and the contents mixed for 2 minutes on an orbital shaker to induce cell lysis. This was followed by incubation at room temperature for 10 minutes to stabilize the luminescent signal. The luminescence was recorded for 0.2 seconds per well on a Tecan multimode platereader (Infinite M1000 pro). The luminescent signal from each well was normalized against that of untreated (DMSO) control wells. All results in Tables 3-6 were reported with percent viability (with controls being 100%).

[2] = test system: HBV viral load in AD38 cells; experiment: Viral load production in AD38 cells, quantitative PCR of the core sequence in supernatant; assay type: cell-based; settings: Hepatitis B virus, 144 h, 6 days incubation
Protocol: as §1, §2
Viral load production was assayed by quantitative PCR of the core sequence. Briefly, 5 μL of clarified supernatant was added to a PCR reaction mixture that contained forward primers HBV-f 5′-CTGTGCCTTGGGTGGCTTT-3′, Reverse primers HBV-r 5′-[…]-3′ and Fluorescent TaqMan™ Probes HBV-probe 5′-FAM/AGCTCCAAA/ZEN/[…]/3IABkFQ-3′ in Quanta Biosciences PerfeCTa® qPCR Toughmix®, and was subsequently on an Applied Biosystems VIIA7 in a final volume of 20 μL. The PCR mixture was incubated at 45° C. for 5 minutes, then 95° C. for 10 min, followed by 40 cycles of 10 seconds at 95° C. and 20 seconds at 60° C. Viral load was quantitated against known standards by using ViiA™ 7 Software. Viral load in the supernatant from wells with treated cells were compared against viral load in supernatant from DMSO control wells (≥3 per plate).

[3] = Table 4, compounds of Group 2, read-out: AD38 Viral Load (%) (VL with cmpd/VL in DMSO control) at 10 μM
[4] = Table 6, compounds of Group 4, read-out: AD38 Viral Load (CpAM/DMSO %) at 10 μM
[5] = Table 3, compounds of Group 1, read-out: AD38 Viral Load (%) (VL with cmpd/VL in DMSO control) at 10 μM

| Compound | AD38 Viability Normalized Result (cmpd/DMSO %) at 10 μM ([1]; Table 4, compounds of Group 2) [%] | activity at 10 µM [2, 3] [%] | other results |
| --- | --- | --- | --- |
| CC1=C(C)C(=O)Nc2cc(C(=O)NCc3cnc(C(F)(F)F)s3)ccc2S1 [Compound C12-01, 2,3-Dimethyl-4-oxo-N-((2-(trifluoromethyl)thiazol-5-yl)methyl)-4,5-dihydrobenzo[b][1,4]thiazepine-7-carboxamide] | 97 | 15.5 |  |
| O=C1NC2=C(CCN(C(=O)NCc3cnc(-n4cccn4)s3)C2)S(=O)(=O)c2ccccc21 [Compound C43-01, N-((2-(1H-pyrazol-1-yl)thiazol-5-yl)methyl)-10-oxo-3,4,10,11-tetrahydrobenzo[f]pyrido[4,3-b][1,4]thiazepine-2(1H)-carboxamide 5,5-dioxide] | 97 | 64.4 |  |
| Cc1c(C(=O)NCc2cnc(-c3ccc(C#N)cc3F)s2)ccc2c1NC(=O)c1ccncc1S2(=O)=O [Compound C22-03] | 90 | 0.5 |  |
| Cc1[nH]c2cc(C(=O)NCc3cnc(C(F)(F)F)s3)ccc2c1C1CCCCC1 [Compound C20-01, 3-Cyclohexyl-2-methyl-N-((2-(trifluoromethyl)thiazol-5-yl)methyl)-1H-indole-6-carboxamide] |  |  | AD38 Viability Normalized Result (CPAM/DMSO %) at 10 μM [1]: 47%; activity at 10 µM [2, 4]: 45.9% |
| CC1=C(C)C(=O)Nc2cc(C(=O)NCc3cnc(C(F)(F)F)s3)ccc2O1 [Compound C1-01] | 106 | 27.9 |  |
| O=C1CC2CCCCN2c2ccc(C(=O)NCc3cnc(C(F)(F)F)s3)cc2N1 (stereo not drawn) [Compound C21-01] | 39 | 45.9 |  |
| CC1=C(C)C(=O)Nc2cc(C(=O)NCc3cnc(-c4ccc(C#N)cc4F)s3)ccc2S1 [Compound C12-02] | 99 | 21.4 |  |
| CC1=C(C)S(=O)(=O)c2ccc(C(=O)NCc3cnc(-c4ccc(OCCCN(C)C)cc4)s3)cc2NC1=O [Compound C10-05] | 90 | 11.3 |  |
| CN(C)CCCOc1ccc(-c2ncc(CNC(=O)c3ccc4c(c3)NC(=O)c3ccncc3S4(=O)=O)s2)cc1 [Compound C46-01] | 101 | 8.5 |  |
| Cc1c(C(=O)NCc2cnc(-n3cccn3)s2)ccc2c1NC(=O)c1ccncc1S2(=O)=O [Compound C22-02] | 85 | 0.9 |  |
| O=C(NCc1cnc(-n2cccn2)s1)c1ccc2c(c1)NC(=O)c1ccncc1S2(=O)=O [Compound C46-02] | 102 | 0.9 |  |
| N#Cc1ccc(-c2ncc(CNC(=O)c3ccc4c(c3)NC(=O)C3CCCCN3S4(=O)=O)s2)c(F)c1 (stereo not drawn) [Compound C25-02] | 95 | 0.5 |  |
| Cc1ncc(CNC(=O)c2ccc3c(c2)NC(=O)c2ccncc2S3)s1 [Compound 576] | 98 | 11.7 |  |
| O=C(NCc1cnc(-c2ccc(O)cc2)s1)c1ccc2c(c1)NC(=O)c1ccncc1S2 [Compound 762] | 102 | 45.6 |  |
| CC1=C(C)S(=O)(=O)c2ccc(C(=O)NCc3cnc(C(F)(F)F)s3)cc2NC1=O [Compound C10-01] | 101 | 12.2 |  |
| N#Cc1ccc(-c2ncc(CNC(=O)c3ccc4c(c3)NC(=O)C43CCCCC3)s2)c(F)c1 [Compound C6-02, N-((2-(4-Cyano-2-fluorophenyl)thiazol-5-yl)methyl)-2′-oxospiro[cyclohexane-1,3′-indoline]-6′-carboxamide] |  |  | AD38 Viability Normalized Result (CPAM/DMSO %) at 10 μM [1]: 91%; activity at 10 µM [2, 4]: 41.2% |
| O=C(NCc1cnc(C(F)(F)F)s1)c1ccc2c(c1)NC(=O)c1ccncc1S2(=O)=O [Compound 1020] | 97 | 6.1 |  |
| CC1=C(C)S(=O)(=O)c2ccc(C(=O)NCc3cnc(-n4cccn4)s3)cc2NC1=O [Compound C10-04] | 92 | 1.8 |  |
| CC(C)c1cc(=O)[nH]c2cc(C(=O)NCc3cnc(C(F)(F)F)s3)ccc12 [Compound C3-01, 4-Isopropyl-2-oxo-N-((2-(trifluoromethyl)thiazol-5-yl)methyl)-1,2-dihydroquinoline-7-carboxamide] |  |  | AD38 Viability Normalized Result (CPAM/DMSO %) at 10 μM [1]: 105%; activity at 10 µM [2, 4]: 44.6% |
| N#Cc1ccc(-c2ncc(CNC(=O)c3ccc4c(c3)NC(=O)CC3CCCCN43)s2)c(F)c1 (stereo not drawn) [Compound C21-02] | 15 | 48.9 |  |
| O=C(NCc1cnc(-n2cccn2)s1)c1ccc2c(c1)NC(=O)[C@@H]1CCCCN1S2(=O)=O (single isomer, unassigned) [C25-04-Isomer I] | 104 | 8.3 |  |
| CC1(C)CCC(c2ncc(CNC(=O)c3ccc4c(c3)NC(=O)c3ccccc3S4(=O)=O)s2)C1 (stereo not drawn) [Compound 979] |  |  | AD38 Viability Normalized Result (cmpd/DMSO %) at 10 μM ([1]; Table 3, compounds of Group 1): 59%; activity at 10 µM [2, 5]: 0.5% |
| O=C(NCc1cnc(-n2cccn2)s1)c1ccc2c(c1)NC(=O)C1CCCN1S2(=O)=O (stereo not drawn) [Compound C24-04] | 104 | 7.7 |  |
| O=C(NCc1cnc(C(F)(F)F)s1)c1ccc2c(C3CCCCC3)c[nH]c2c1 [Compound C19-01, 3-Cyclohexyl-N-((2-(trifluoromethyl)thiazol-5-yl)methyl)-1H-indole-6-carboxamide] |  |  | AD38 Viability Normalized Result (CPAM/DMSO %) at 10 μM [1]: 79%; activity at 10 µM [2, 4]: 30.8% |
| O=C1CCC(c2ncc(CNC(=O)c3ccc4c(c3)NC(=O)c3ccccc3S4(=O)=O)s2)C1 (stereo not drawn) [Compound 980-A, 11-oxo-N-((2-(3-oxocyclopentyl)thiazol-5-yl)methyl)-10,11-dihydrodibenzo[b,f][1,4]thiazepine-8-carboxamide 5,5-dioxide] |  |  | AD38 Viability Normalized Result (cmpd/DMSO %) at 10 μM ([1]; Table 3, compounds of Group 1): 97%; activity at 10 µM [2, 5]: 1.2% |
| O=C(NCc1cnc(-n2cccn2)s1)c1ccc2c(c1)NC(=O)[C@H]1CCCCN1S2(=O)=O (single isomer, unassigned) [C25-04-Isomer II] | 99 | 1.7 |  |
| O=C(NCc1cnn(-c2nccs2)c1)c1ccc2c(c1)NC(=O)c1ccccc1S2(=O)=O [Compound 1155, 11-oxo-N-((1-(thiazol-2-yl)-1H-pyrazol-4-yl)methyl)-10,11-dihydrodibenzo[b, f][1,4]thiazepine-8-carboxamide 5,5-dioxide] |  |  | AD38 Viability Normalized Result (cmpd/DMSO %) at 10 μM ([1]; Table 5, compounds of Group 3): 104%; activity at 10 µM ([2]; Table 5, compounds of Group 3, read-out: AD38 Viral Load (%) (VL with cmpd/VL in DMSO control) at 10 μM): 0.6% |
| N#Cc1ccc(-c2ncc(CNC(=O)c3ccc4cc[nH]c4c3)s2)c(F)c1 [Compound C13-02, N-((2-(4-cyano-2-fluorophenyl)thiazol-5-yl)methyl)-1H-indole-6-carboxamide] |  |  | AD38 Viability Normalized Result (CPAM/DMSO %) at 10 μM [1]: 105%; activity at 10 µM [2, 4]: 16.1% |
| N#Cc1ccc(-c2ncc(CNC(=O)c3ccc4c(c3)NC(=O)[C@H]3CCCCN3S4(=O)=O)s2)c(F)c1 (single isomer, unassigned) [C25-02-Isomer II] | 111 | 0.6 |  |
| CC1=C(C)S(=O)(=O)c2ccc(C(=O)NCc3cnc(-c4ccc(C#N)cc4F)s3)cc2NC1=O [Compound C10-02] | 95 | 4 |  |
